In patent US7585521B2, “Controlled release ceramic particles, compositions thereof, processes of preparation and methods of use” (Australian Nuclear Science & Technology Organisation, priority 2000, dated 2009):

Legend:
[1] = spray-dried particles produced from bohemite sols; cited from earlier work
[2] = Release of dye from sol-gel silica gels/microspheres into demineralised water, UV-visible absorbance; format: physicochemical
Procedure: The release of the dye molecule from the gels was performed in 3 ml of demineralised water and the evolution of the absorbance with time was monitored at a fixed wavelength λmax=485 nm using a UV-visible spectrophotometer (Lambda 40, Perkin Elmer, USA). The wavelength of 485 nm corresponds to the absorbance maximum of Orange II in the visible spectrum.
The plots of fraction of dye released versus time (FIG. 1) were obtained by dividing the actual quantity of dye released by the total mass of dye encapsulated in the gel. For the dry gel, this quantity is calculated by dividing the total quantity of dye in the gel rod by the mass of the gel and multiplying it by the mass of the gel sample used in the release experiments. For the wet gel, the fraction released was obtained experimentally from the final absorbance.
To study the influence of the temperature on the release rate, a known quantity of gel was immersed in 3 ml of demineralised water and the absorbance was monitored at a fixed wavelength of 485 nm. One sample was kept at ambient temperature (i.e. 22° C.) and two others were maintained at 37° C. and 60° C. in thermostated water baths.
The release rates of the Orange II samples were monitored at a fixed wavelength of 485 nm while the release rates of the methyl-violet samples were monitored at 584 nm (corresponding to the absorption peak of methyl-violet in the visible spectrum).

[3] = Release of cycloheximide and cis-platin from gels, UV absorbance; format: physicochemical; details: release from gels in 3 ml of 0.9% NaCl, 300 nm
Procedure: The first series of samples was prepared by mixing 5.51 ml of TMOS (37 mmol), 2.67 ml of either drug solutions (148 mmol of H2O) and 6 ml of methanol (148 mmol). 4 ml aliquots of the solutions were transferred to 5 ml screw capped poly-propylene vials and placed in an oven at 60° C. to gel. Once gelation occurred the samples were aged at 60° C. for 7 days. The cap was then removed and the samples were allowed to dry for 3 days at 60° C.
A second series of samples was prepared by combining 3 ml of TMOS (20 mmol), 2.88 ml of MTMS (20 mmol) and 2.91 ml of the respective drug solution (161 mmol of H2O). These samples were processed as described above.
The release of cycloheximide from a known quantity of gel was investigated in 3 ml of demineralised water and the absorbance was monitored at a fixed wavelength, .λmax=201 nm. The release of cis-platin from a known quantity of gel was investigated in 3 ml of 0.9% NaCl and the absorbance was monitored at a fixed wavelength, λmax=300 nm.

[4] = Degradation of cis-platin in silica gels on aging at 60° C., examined by transmission electron microscopy; format: physicochemical
Procedure: The substitution of metal alkoxides by organically modified silicon alkoxides leads to the replacement of the hydroxyl groups at the surface of the pores by organic moieties (e.g. methyl vinyl, glycidyloxypropyl groups). This prevents interaction between the entrapped bio-molecules and the surface, and potential degradation of the active ingredient. This is illustrated by the encapsulation of cis-platin in silica gels.
A solution containing 20 ml of TMOS (134 mmol), 9.69 ml of cis-platin solution (538 mmol of water) and 21.8 ml of methanol (538 mmol) was stirred for 30 minutes. 4 ml aliquots of the solution were transferred to 5 ml screw capped poly-propylene vials and placed in an oven at 60° C. to gel. Once gelation occurred the samples were aged at 60° C. for 15 days. The cap was then removed and the samples were allowed to dry for 3 days at 60° C.
An identical procedure was used to prepare gels from a solution containing 3 ml of TMOS, 2.88 ml of MTMS and 2.91 ml of cis-platin solution.
After 3 days of aging at 60° C. the gels prepared from TMOS started to darken, ultimately yielding a black gel after 15 days aging. […] The two dry gels were subsequently examined by transmission electron microscopy using a JEOL 201 OF field emission gun microscope.

## CN(C)CCCN1c2ccccc2CCc2ccccc21 [imipramine]
[1]
  release of encapsulated imipramine: released within five minutes

## methyl violet
[2]; gels W=4, D=4, aged 15 or 30 days at 60° C., monitored at 584 nm
  release rate compared with Orange II: significantly smaller

## O=S(=O)([O-])c1ccc(N=Nc2c(O)ccc3ccccc23)cc1.[Na+] [Orange II, 4-(2-hydroxy-1-napthylazo) benzene sulfonic acid, sodium salt]
[2]; 0-50% of TMOS substituted with MTMS, W=4, D=4
  release rate versus MTMS content: decrease with increasing MTMS content
[2]; gels W=4, D=0, dried 1, 3 or 7 days at ambient, 60° or 104° C.
  release rate versus drying time and temperature: decrease with increasing time and temperature
[2]; gels W=4, D=4, dye solution pH 1-11
  pH of maximum release rate: 7
[2]; gels W=4, D=4, synthesised using acid as a catalyst
  release rate versus pH, acid catalyst: increase with increasing pH
[2]; gels W=4, D=4, synthesised using base as a catalyst
  release rate versus pH, base catalyst: decrease with increasing pH
[2]; gels aged at 60° C. for 0-30 days
  release rate versus syneresis time: increase with syneresis time
[2]; gels with W = 2-8, D = 0-8, release in demineralised water, 485 nm
  release rate of the dye versus W and D: increase with increasing W and decreasing D
[2]; microspheres dried from ambient to 100° C. for 2 days
  release rate of microspheres versus drying temperature: decreases with increasing drying temperature
[2]; release at 22° C., 37° C. and 60° C. in demineralised water
  release rate versus temperature of the release media: increase with increasing temperature

## Cis Pt(NH3)2Cl2 [cis-platin]
[3]
  release rate compared with cycloheximide: greater
[4]; 50% of TMOS substituted by MTMS
  reaction of cis-platin with the matrix, MTMS substituted gels: prevents any such precipitation
[4]; encapsulated in silica gels (TMOS)
  reaction of cis-platin with the matrix, silica gels: precipitation of metallic platinum nanoparticles
